Results from patent publication US3984482A, “2-(Dihalobenzyl)-6-nitro-4-t-butylphenol and preparation thereof” (Institut de Recherches Chimiques et Biologiques Appliquees …, priority 1967, dated 1976).
Where two headings read alike, the source gives them in different places.

Assays:
[1] = Acute toxicity per os in mice (LD 50, maximum tolerated dose); type: in vivo; details: mouse, po; for LD50: read-out: Approximate LD 50; for MTD: read-out: Approximate maximum tolerated dose
Protocol: The acute toxicity per os was determined in mice by the following method. Different doses of each compound were each tested on 10 mice, both male and female, weighing on average from 18 to 22 g; each dose was administered as a suspension in 10% gum arabic or olive oil and each mouse was given a uniform dose of 0.4 ml per 20 g weight of mouse with the aid of a probang.
The mice were starved for two hours before the experiment and the temperatures and behaviour of the animals were observed before the test and 11/2 and 3 hours after ingestion of the compound. After this time they were replaced in their cages and observed for several days.
The number of dead was counted daily and from this was deduced the lethal dose 50 (LD 50), the maxmum tolerated dose (MTD) and the minimum mortal dose MMD).

London staphylococcus = experiment: Bacteriostatic activity in vitro by progressive dilution in culture broth, London staphylococcus; type: cell-based, Gram-positive London staphylococcus; details: conditions under which the compounds of Formula I were tested
Protocol: The bacteriostatic activities in vitro of the compounds of Formula I were determined by comparing them with known products, particularly of analogous series. The activity was determined with respect to the specific Gram-positive London staphylococcus as a reference strain for all the compounds.
The test was carried out in a culture broth of the following formula: […]
Indole-free bacteriological peptone
Sodium chloride 5% by weight
The method used involved progressive dilution of the principle tested. The dilutions varied by thousandths between concentrations of one thousandth and one tenth of a thousandth, and by 10 thousandths for concentrations between one tenth of a thousandth and 1/100 of a thousandth, and by hundred thousandths for concentrations between 1/100 of a thousandth and one millionth. If the product was found active at a dilution of one millionth, a new range was made from millionth to millionth to beyond one millionth.
Two dilution series were made independently and the results of the two series must be identical. The readings were carried out after 24 hours.
The figure given in the table is that of the maximum dilution at which the growth of London staphylococcus is inhibited.

Row | Compound | LD50 ([1]; solvent olive oil) [mg/kg] | MTD ([1]; solvent olive oil) [mg/kg] | other results
1 | CC(C)c1ccc(O)c(Cc2ccc(Cl)cc2Cl)c1 [Example 4, 2-(2',4'-dichlorobenzyl)-4-isopropylphenol] | 1700 | 500 | –
2 | Cc1ccc(O)cc1 [Para-cresol] | – | – | inhibiting dilution (London staphylococcus): 1/4000
3 | Oc1ccccc1 [Phenol] | – | – | inhibiting dilution (London staphylococcus): 1/1000
4 | CC(C)(C)c1cc(Cl)c(O)c(Cc2ccc(Cl)c(Cl)c2)c1 [Example 9, 2-(3',4'-dichlorobenzyl)-6-chloro-4-t-butylphenol] | > 2500 | 500 | –
5 | CC(C)(C)c1ccc(O)c(Cc2ccc(Cl)cc2)c1 [Example 3, 2-(4'-chlorobenzyl)-4-t-butylphenol] | – | – | LD50 ([1]; solvent 10% gum): 1900 mg/kg
6 | CC(C)(C)c1ccc(O)c(Cc2ccc(Cl)c(Cl)c2)c1 [Example 7, 2-(3',4'-dichlorobenzyl)-4-t-butylphenol] | 1500 | 500 | –
7 | CCC(C)c1ccc(O)c(Cc2ccc(Cl)cc2)c1 (stereo not shown) [Example 1, 2-(4'-chlorobenzyl)-4-sec-butylphenol] | – | – | LD50 ([1]; solvent 10% gum): 1000 mg/kg; MTD ([1]; solvent 10% gum): 500 mg/kg
8 | CC(C)(C)c1ccc(O)c(Cc2ccc(Cl)cc2Cl)c1 [Example 5, 2-(2',4'-dichlorobenzyl)-4-t-butylphenol] | 1700 | 500 | –
9 | CCC(C)c1ccc(O)c(Cc2ccc(Cl)c(Cl)c2)c1 (stereo not shown) [Example 8, 2-(3',4'-dichlorobenzyl)-4-s-butylphenol] | 2400 | 1000 | –
10 | CC(C)(C)c1cc(Cl)c(O)c(Cc2ccc(Cl)cc2Cl)c1 [Example 10, 2-(2',4'-dichlorobenzyl)-6-chloro-4-t-butylphenol] | 1500 | 500 | –
11 | CC(C)c1ccc(O)c(Cc2ccc(Cl)cc2)c1 [Example 2, 2-(4'-chlorobenzyl)-4-isopropylphenol] | 1700 | 500 | –
